From PMC3716717, “The molecular basis for recognition of bacterial ligands at equine TLR2, TLR1 and TLR6” (Veterinary Research, 2013)
Peptide text beside a SMILES is read from it. * marks the point of attachment. X1 = CCCCCCCCCCCCCCCC(=O)OCC(C*)OC(=O)CCCCCCCCCCCCCCC; Palmitoyl = CCCCCCCCCCCCCCCC(=O)*

How the values were obtained:
Type in all cases: cell-based
human TLR2 [1] = target: T1, human TLR2 (Homo sapiens, UniProt O60603); test: NF-κB reporter assay in HEK293 cells transfected with human TLR2 only (+CD14); conditions: 20 ng/mL ligand, human TLR2 + human CD14, endogenous TLR1/6
T1 sequence (O60603 21-784): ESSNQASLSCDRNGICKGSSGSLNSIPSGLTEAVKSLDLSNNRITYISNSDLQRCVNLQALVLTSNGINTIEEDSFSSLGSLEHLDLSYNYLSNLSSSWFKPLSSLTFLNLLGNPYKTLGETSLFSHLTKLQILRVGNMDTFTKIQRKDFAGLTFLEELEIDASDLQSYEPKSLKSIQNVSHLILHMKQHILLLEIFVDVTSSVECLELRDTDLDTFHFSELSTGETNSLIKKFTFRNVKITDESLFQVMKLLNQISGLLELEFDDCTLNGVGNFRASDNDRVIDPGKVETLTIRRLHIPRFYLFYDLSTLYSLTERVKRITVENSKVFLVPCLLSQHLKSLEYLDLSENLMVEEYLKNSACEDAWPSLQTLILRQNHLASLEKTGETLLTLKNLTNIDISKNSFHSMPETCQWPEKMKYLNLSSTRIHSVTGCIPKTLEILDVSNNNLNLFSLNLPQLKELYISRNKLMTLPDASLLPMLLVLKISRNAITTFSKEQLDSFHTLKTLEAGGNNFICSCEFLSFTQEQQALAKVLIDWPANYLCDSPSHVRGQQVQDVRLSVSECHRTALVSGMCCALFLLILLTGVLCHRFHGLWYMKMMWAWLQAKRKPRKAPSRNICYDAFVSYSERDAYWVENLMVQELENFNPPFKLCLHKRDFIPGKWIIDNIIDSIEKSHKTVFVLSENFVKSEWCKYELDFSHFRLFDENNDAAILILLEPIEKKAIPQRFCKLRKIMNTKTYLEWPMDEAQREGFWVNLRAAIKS
Experimental: HEK293 cells were seeded at a density of 3 × 10^4 cells per well of a 96 well plate and transiently transfected 48 h later using JetPEI (Polyplus). For transfection, expression vectors containing cDNA encoding human TLR2, -1 and -6, and CD14, were mixed as appropriate. TLR cDNA-containing and CD14 cDNA-containing vectors were used at 1 ng/well. TLR constructs were replaced as appropriate with empty vector (pcDNA3) to balance the total added DNA amounts. pNF-κB-luc (10 ng/well) and ph-RG-TK (5 ng/well) were added to receptor mixtures, together with 10× TE and 150 mM NaCl to give a total volume of 50 μL per 10 wells. Following mixing of DNA, and per 10 wells, 2 μL JetPEI was added to 48 μL 150 mM NaCl. JetPEI/NaCl was added to the DNA mixtures at a 1:1 ratio and incubated for 30 min at room temperature. Following incubation, transfection mixtures were diluted to 1 mL per 10 wells in complete HEK medium. Old medium was removed from plated cells and replaced with the transfection/complete medium mixtures. […] Cells were stimulated for six hours, lysed using diluted PLB, and NF-κB activation measured by the dual luciferase reporter assay (Promega).
(§1) Supplementary file 1297-9716-44-50-S1.pdf: Additional file 1 Expression of TLRs and responses to synthetic ligands of SW620 and HEK293 cells. […] (A) After 25 PCR cycles, TLR4 was detected in SW620, and TLR1 was detected in HEK293. […]

human TLR2/1 = target: T2, human TLR2/1 (Homo sapiens, UniProt O60603+Q15399); test: NF-κB dual luciferase reporter assay in SW620 cells transfected with human TLR2+TLR1+CD14; conditions: human TLR2+TLR1+CD14, 6 h stimulation, normalised curves
T2 construct: FLAG (from vector pFLAG-CMV); expressed in transfected cells; host or cells: SW620 (human)
T2 sequence (O60603 21-784): as above
T2 sequence (Q15399 25-786): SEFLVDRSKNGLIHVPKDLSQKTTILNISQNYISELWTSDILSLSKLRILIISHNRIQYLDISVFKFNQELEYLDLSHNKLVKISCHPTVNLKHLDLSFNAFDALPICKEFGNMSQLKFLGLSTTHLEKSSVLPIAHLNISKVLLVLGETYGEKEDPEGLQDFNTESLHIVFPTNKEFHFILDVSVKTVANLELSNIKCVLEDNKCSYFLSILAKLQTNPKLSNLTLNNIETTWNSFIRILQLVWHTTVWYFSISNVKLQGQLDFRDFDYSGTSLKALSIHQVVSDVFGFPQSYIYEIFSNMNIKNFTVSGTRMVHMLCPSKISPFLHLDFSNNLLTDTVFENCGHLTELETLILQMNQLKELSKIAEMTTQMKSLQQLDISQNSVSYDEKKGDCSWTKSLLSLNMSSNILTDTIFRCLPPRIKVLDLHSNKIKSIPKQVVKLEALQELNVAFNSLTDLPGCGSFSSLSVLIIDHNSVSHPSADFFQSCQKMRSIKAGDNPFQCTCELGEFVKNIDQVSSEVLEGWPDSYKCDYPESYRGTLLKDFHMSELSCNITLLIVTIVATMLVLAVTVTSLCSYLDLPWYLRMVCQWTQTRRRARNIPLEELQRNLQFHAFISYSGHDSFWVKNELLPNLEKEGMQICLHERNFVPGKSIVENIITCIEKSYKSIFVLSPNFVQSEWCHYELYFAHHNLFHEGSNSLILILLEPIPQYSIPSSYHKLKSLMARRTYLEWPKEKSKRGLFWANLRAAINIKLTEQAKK
Experimental: (§2) SW620 cells (a gift from Richard Tapping, USA) were utilised for TLR2/1 and TLR2/6 transient transfection experiments, as, unlike HEK293 cells, they are 1) deficient in significant expression of all three receptors, and 2) poorly responsive to Pam2CSK4 and Pam3CSK4 without exogenously added TLRs (Additional file 1). […] SW620 cells were seeded at 3.75 × 10^4 cells per well of a 48 well plate and transiently transfected 24 hours later using Fugene 6 (Promega) at a ratio of 1 μg DNA: 4 μL Fugene 6. For transfection, expression vectors containing cDNA encoding human (in pFLAG-CMV) or equine (in pcDNA3) TLR2, -1 and -6, and CD14 (in pcDNA3), were mixed as appropriate. TLR cDNA-containing vectors were used at 2.5 ng/well; CD14 cDNA-containing vectors were used at 1.25 ng/well. […] Cells were stimulated for six hours, lysed using diluted passive lysis buffer (PLB; Promega), and NF-κB activation measured by the dual luciferase reporter assay (Promega). […]
(§3) SW620 cells were transiently transfected with reporter constructs and one of four receptor combinations: human TLR2+TLR1+CD14, human TLR2+TLR6+CD14, equine TLR2+TLR1+CD14 or equine TLR2+TLR6+CD14, and stimulated with increasing doses of ligand. EC50 and maximum stimulation values were determined at each heterodimer as measures of ligand potency and efficacy respectively.

human TLR2 [2] = target: T1, human TLR2; test: NF-κB reporter assay in SW620 cells transfected with human TLR2 only (+CD14); design: FLAG (from vector pFLAG-CMV); expressed in transfected cells; host or cells: SW620 (human); conditions: 20 ng/mL ligand
Experimental: (§4) SW620 cells (a gift from Richard Tapping, USA) were utilised for TLR2/1 and TLR2/6 transient transfection experiments, as, unlike HEK293 cells, they are 1) deficient in significant expression of all three receptors, and 2) poorly responsive to Pam2CSK4 and Pam3CSK4 without exogenously added TLRs (Additional file 1). […] SW620 cells were seeded at 3.75 × 10^4 cells per well of a 48 well plate and transiently transfected 24 hours later using Fugene 6 (Promega) at a ratio of 1 μg DNA: 4 μL Fugene 6. For transfection, expression vectors containing cDNA encoding human (in pFLAG-CMV) or equine (in pcDNA3) TLR2, -1 and -6, and CD14 (in pcDNA3), were mixed as appropriate. TLR cDNA-containing vectors were used at 2.5 ng/well; CD14 cDNA-containing vectors were used at 1.25 ng/well. TLR constructs were replaced with empty vector (pcDNA3), as appropriate, to balance total added DNA amounts. […] Cells were stimulated for six hours, lysed using diluted passive lysis buffer (PLB; Promega), and NF-κB activation measured by the dual luciferase reporter assay (Promega).
as §1

equine TLR2/1 = test: NF-κB dual luciferase reporter assay in SW620 cells transfected with equine TLR2+TLR1+CD14; conditions: for EC50: SW620 cells, equine TLR2+TLR1+CD14, 6 h stimulation, NF-κB luciferase, normalised curves
Experimental: as §4, with “amounts. Reporter constructs pNF-κB-luc (Clontech; 25 ng/well) and ph-RG-TK (Promega; 12.5 ng/well), encoding firefly luciferase under an NF-κB promoter and constitutively expressed Renilla luciferase respectively, were then added to all receptor mixtures, together with 10× Tris-EDTA (TE). Following mixing of DNA, and per 4 wells, 0.7 μL Fugene 6 was diluted to 10 μL in serum- and antibiotic-free RPMI and incubated for 5 min. DNA mixtures were then added to the Fugene 6/RPMI mixtures and incubated for 30 min at room temperature. Following incubation, transfection mixtures were diluted to 1 mL per 4 wells in complete SW620 medium.” for “amounts.”, “(Promega). […]” for “(Promega).”
as §3

human TLR2/6 = target: T3, human TLR2/6 (Homo sapiens, UniProt O60603+Q9Y2C9); test: NF-κB dual luciferase reporter assay in SW620 cells transfected with human TLR2+TLR6+CD14
T3 construct: FLAG (from vector pFLAG-CMV); expressed in transfected cells; host or cells: SW620 (human)
T3 sequence (O60603 21-784): as the sequence (O60603 21-784) above
T3 sequence (Q9Y2C9 32-796): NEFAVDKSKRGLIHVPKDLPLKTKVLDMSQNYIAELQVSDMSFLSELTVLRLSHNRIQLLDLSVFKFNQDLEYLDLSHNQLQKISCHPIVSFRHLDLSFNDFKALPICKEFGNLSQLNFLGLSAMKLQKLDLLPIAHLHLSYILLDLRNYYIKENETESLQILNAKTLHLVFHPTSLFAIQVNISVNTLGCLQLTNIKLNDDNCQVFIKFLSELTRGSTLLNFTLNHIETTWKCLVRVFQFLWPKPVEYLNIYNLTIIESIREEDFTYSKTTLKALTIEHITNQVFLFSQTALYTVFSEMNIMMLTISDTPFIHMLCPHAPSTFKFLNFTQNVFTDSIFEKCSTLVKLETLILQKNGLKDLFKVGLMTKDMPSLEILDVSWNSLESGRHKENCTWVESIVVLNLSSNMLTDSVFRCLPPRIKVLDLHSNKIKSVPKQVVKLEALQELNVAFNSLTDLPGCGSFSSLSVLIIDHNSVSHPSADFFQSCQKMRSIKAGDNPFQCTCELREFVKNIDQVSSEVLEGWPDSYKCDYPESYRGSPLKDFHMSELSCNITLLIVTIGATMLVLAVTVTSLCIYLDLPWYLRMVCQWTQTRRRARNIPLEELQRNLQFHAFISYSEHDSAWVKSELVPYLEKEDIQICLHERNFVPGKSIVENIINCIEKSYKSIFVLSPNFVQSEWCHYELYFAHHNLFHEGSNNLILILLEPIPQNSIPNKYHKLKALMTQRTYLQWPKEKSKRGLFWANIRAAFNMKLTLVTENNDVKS
Experimental: as §2, §3

equine TLR2/6 = test: NF-κB dual luciferase reporter assay in SW620 cells transfected with equine TLR2+TLR6+CD14
Experimental: as §2, §3

Compound	NF-κB response of HEK293 with exogenous TLR2 only (human TLR2 [1])	EC50 (human TLR2/1)	NF-κB response of SW620 with exogenous TLR2 only (human TLR2 [2])	EC50 (equine TLR2/1)	potency at equine TLR2/1 relative to human TLR2/1 (equine TLR2/1; more potent at equine TLR2/1 than at human TLR2/1)	EC50 (human TLR2/6; human TLR2+TLR6+CD14, 6 h stimulation, NF-κB luciferase, normalised curves)	EC50 (equine TLR2/6; equine TLR2+TLR6+CD14, 6 h stimulation, NF-κB luciferase, normalised curves)	stimulation of human TLR2/6 (human TLR2/6; data not shown)	stimulation of equine TLR2/6 (equine TLR2/6; data not shown)
CCCCCCCCCCCCCCCC(=O)OCC(CSC[C@H](N)C(=O)N[C@@H](CO)C(=O)N[C@@H](CCCCN)C(=O)N[C@@H](CCCCN)C(=O)N[C@@H](CCCCN)C(=O)N[C@@H](CCCCN)C(=O)O)OC(=O)CCCCCCCCCCCCCCC (stereo partly shown) [Pam2CSK4] (H-C(X1)SKKKK-OH; N-terminus and C-terminus assumed)	respond to both ligands	3.31 nM	respond weakly	0.43 ng/mL	10 fold	0.0118 nM	0.010 ng/mL	–	–
CCCCCCCCCCCCCCCC(=O)N[C@@H](CSCC(COC(=O)CCCCCCCCCCCCCCC)OC(=O)CCCCCCCCCCCCCCC)C(=O)N[C@@H](CO)C(=O)N[C@@H](CCCCN)C(=O)N[C@@H](CCCCN)C(=O)N[C@@H](CCCCN)C(=O)N[C@@H](CCCCN)C(=O)O (stereo partly shown) [Pam3CSK4] (Palmitoyl-C(X1)SKKKK-OH; C-terminus assumed)	respond to both ligands	0.311 nM	not	18.73 ng/mL	–	–	–	failed to stimulate	failed to stimulate
